One assay addresses hPDE4D (Homo sapiens, UniProt Q08499). The assay is described as follows: In-vitro real-time enzyme-coupled spectrophotometric assay for PDE4 enzymes (hPDE4D).
For the next assay, the target named is hPDE4B (Homo sapiens, UniProt Q07343). The assay is described as follows: In-vitro real-time enzyme-coupled spectrophotometric assay for PDE4 enzymes (hPDE4B).
The subject of assay [1] is experimentally-induced interstitial cystitis. To be noted: rats; frequency of urination decreased, urine volume per urination increased; cited from earlier work.
The test system of assay [2] is patients suffering from asthma and COPD. To be noted: effect of cilomilast disappeared on long-term trial; cited from earlier work.

Counter-ions that a name gives are not always drawn. Bounds are passed on as bounds.

This is an account of results in patent publication US20120213758A1, “BIARYL PDE4 INHIBITORS FOR TREATING PULMONARY AND CARDIOVASCULAR DISORDERS” (DeCODE Genetics enf, priority 2007, published 2012).

Sequence of hPDE4B (Q07343 whole entry): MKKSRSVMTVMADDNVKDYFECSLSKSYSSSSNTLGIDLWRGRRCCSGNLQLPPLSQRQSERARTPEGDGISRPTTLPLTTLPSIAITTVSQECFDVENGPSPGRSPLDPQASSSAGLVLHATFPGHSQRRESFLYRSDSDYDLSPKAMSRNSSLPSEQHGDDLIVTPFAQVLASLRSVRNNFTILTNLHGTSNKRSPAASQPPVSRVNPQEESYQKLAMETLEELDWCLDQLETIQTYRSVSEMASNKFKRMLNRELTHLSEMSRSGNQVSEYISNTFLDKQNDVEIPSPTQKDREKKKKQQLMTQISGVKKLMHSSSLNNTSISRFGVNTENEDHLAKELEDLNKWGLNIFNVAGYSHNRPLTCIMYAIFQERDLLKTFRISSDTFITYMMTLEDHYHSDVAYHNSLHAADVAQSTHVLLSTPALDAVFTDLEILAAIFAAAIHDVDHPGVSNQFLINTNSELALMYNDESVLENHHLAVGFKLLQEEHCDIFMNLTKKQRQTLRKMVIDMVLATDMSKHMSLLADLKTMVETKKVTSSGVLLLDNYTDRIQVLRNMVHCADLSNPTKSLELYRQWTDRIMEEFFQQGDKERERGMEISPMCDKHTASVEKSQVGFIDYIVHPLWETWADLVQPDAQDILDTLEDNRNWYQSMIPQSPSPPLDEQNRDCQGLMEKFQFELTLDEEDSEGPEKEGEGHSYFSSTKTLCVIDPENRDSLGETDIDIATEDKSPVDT
Sequence of hPDE4D (Q08499 whole entry): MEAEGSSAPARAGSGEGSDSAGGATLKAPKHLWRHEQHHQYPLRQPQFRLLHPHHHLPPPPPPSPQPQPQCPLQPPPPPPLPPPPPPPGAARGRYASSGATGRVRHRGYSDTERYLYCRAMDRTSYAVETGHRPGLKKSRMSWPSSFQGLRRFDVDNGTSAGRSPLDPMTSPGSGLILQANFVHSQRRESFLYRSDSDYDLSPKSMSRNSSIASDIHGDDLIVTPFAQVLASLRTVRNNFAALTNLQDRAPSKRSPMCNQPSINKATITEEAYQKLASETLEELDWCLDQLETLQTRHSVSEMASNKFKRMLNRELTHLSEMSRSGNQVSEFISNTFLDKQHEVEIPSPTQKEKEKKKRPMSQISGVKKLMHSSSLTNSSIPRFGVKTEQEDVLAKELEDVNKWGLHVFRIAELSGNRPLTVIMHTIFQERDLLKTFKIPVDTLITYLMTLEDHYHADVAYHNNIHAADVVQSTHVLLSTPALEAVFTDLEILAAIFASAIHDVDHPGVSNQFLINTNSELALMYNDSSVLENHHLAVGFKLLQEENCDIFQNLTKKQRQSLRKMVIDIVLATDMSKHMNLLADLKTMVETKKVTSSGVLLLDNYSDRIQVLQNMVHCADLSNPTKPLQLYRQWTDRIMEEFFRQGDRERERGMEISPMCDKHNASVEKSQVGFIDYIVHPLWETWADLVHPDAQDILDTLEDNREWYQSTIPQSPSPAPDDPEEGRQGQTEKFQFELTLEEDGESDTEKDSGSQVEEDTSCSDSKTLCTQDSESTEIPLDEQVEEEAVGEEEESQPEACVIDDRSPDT

In general, IC50 refers to the point on the concentration scale where inhibition reaches its midpoint. Turning to `COC(=O)c1ccc(Cc2ccc(OC)c(-c3cccc(Cl)c3)c2)cn1` [Example A-073, 5-(3′-chloro-6-methoxy-biphenyl-3-ylmethyl)-pyridine-2-carboxylic methyl ester], the IC50 on hPDE4D and at hPDE4B was less than 5 µM each time. For the compound `COc1ccc(Cc2ccc(N(C)CC(=O)O)nc2)c(F)c1-c1cccc(Cl)c1` [Example A-074, {[5-(3′-chloro-2-fluoro-6-methoxy-biphenyl-3-ylmethyl)-pyridin-2-yl]-methyl-amino}-acetic acid], the IC50 against hPDE4D and against hPDE4B was less than 5 µM in each case.

With `COC(=O)c1ccc(Cc2ccc(OC(F)F)c(-c3cccc(Cl)c3)c2)cn1` [Example A-075, 5-(3′-Chloro-6-difluoromethoxy-biphenyl-3-ylmethyl)-pyridine-2-carboxylic acid methyl ester], the IC50 on hPDE4D and at hPDE4B was less than 5 µM each time. As for `FC(F)Oc1ccc(Cc2ccc(-c3nnn[nH]3)nc2)cc1-c1cccc(Cl)c1` [Example A-076, 5-(3′-Chloro-6-difluoromethoxy-biphenyl-3-ylmethyl)-2-(1H-tetrazol-5-yl)-pyridine hydrochloride salt], the IC50 against hPDE4D and against hPDE4B was less than 5 µM throughout. Turning to `COc1ccc(Cc2ccc(F)cc2)[n+]([O-])c1-c1cccc([N+](=O)[O-])c1` [Example B-080, 6-(4-Fluoro-benzyl)-3-methoxy-2-(3-nitro-phenyl)-pyridine 1-oxide], the IC50 against hPDE4D and against hPDE4B was less than 5 µM in each case.

`CCNC(=O)Nc1ccc(Cc2ccc(OC)c(-c3cccc(Cl)c3)c2F)c[n+]1O` [Example B-081, 1-[5-(3′-Chloro-2-fluoro-6-methoxy-biphenyl-3-ylmethyl)-1-oxy-pyridin-2-yl]-3-ethyl-urea]: the IC50 on hPDE4D and against hPDE4B was less than 5 µM in each case. Consider `CCNC(=O)NCc1ccc(Cc2ccc(OC)c(-c3cccc(Cl)c3)c2F)c[n+]1[O-]` [Example B-082, 1-[5-(3′-Chloro-2-fluoro-6-methoxy-biphenyl-3-ylmethyl)-1-oxy-pyridin-2-ylmethyl]-3-ethyl-urea], for which the IC50 on hPDE4D and on hPDE4B was less than 5 µM throughout.

As for `COc1ccc(Cc2ccc(CN3CCNC3=O)[n+]([O-])c2)c(F)c1-c1cccc(Cl)c1` [Example B-083, 1-[5-(3′-Chloro-2-fluoro-6-methoxy-biphenyl-3-ylmethyl)-1-oxy-pyridin-2-ylmethyl]-imidazolidin-2-one], the IC50 against hPDE4D and against hPDE4B was less than 5 µM throughout. For `CCc1ccc2c(-c3cccc(Cl)c3)nc(=O)n(CC)c2n1` [YM976], the “effect on experimentally-induced interstitial cystitis” value in assay [1] was “ameliorate the effects of experimentally-induced interstitial cystitis in rats”. Consider `COc1ccc([C@]2(C#N)CC[C@@H](C(=O)O)CC2)cc1OC1CCCC1` [cilomilast], for which the “clinical effect in asthma and COPD” value in assay [2] is listed as “showed initially excellent results”.

Regarding `O=C(Nc1c(Cl)cncc1Cl)c1ccc(OC(F)F)c(OCC2CC2)c1` [roflumilast], in assay [2], the “clinical effect in asthma and COPD” value was “showed initially excellent results”.
